Source: ChEMBL document CHEMBL5625159, “Challenges for the development of mutant isocitrate dehydrogenases 1 inhibitors to treat glioma” (Eur J Med Chem, 2023)

Columns and labels:
[1] = target: T1, Isocitrate dehydrogenase [NADP] cytoplasmic (Homo sapiens, UniProt O75874, R132H); test: Inhibition of full length N-terminal GST-tagged human IDH1 R132H mutant expressed in Escherichia coli in presence of alpha-KG by fluorescence based biochemical assay
[2] = Brain to plasma ratio in mouse at 50 mg/kg, iv; format: ADME, organism-based; conditions: brain and plasma, read-out: BPR
[3] = system: HCT-116; test: Antiproliferative activity against human HCT-116 cells assessed as reduction in cell viability incubated for 5 days by Celltiter-Glo assay; format: functional, cell-based; conditions: HCT-116, 120 h
[4] = system: HCT-116; test: Antiproliferative activity against human HCT-116 cells assessed as reduction in cell growth by MTT assay; format: functional, cell-based
[5] = system: HT-1080; test: Antiproliferative activity against human HT-1080 cells harboring IDH1 […] mutant measured after 72 hrs by MTT assay; format: functional, cell-based; conditions: HT-1080, 72 h
[6] = system: U-87 MG; test: Antiproliferative activity against human U-87 MG cells harboring IDH1 R132H mutant measured after 72 hrs by MTT assay; format: functional, cell-based, U-87MG ATCC
[7] = target: T1, Isocitrate dehydrogenase [NADP] cytoplasmic; test: Inhibition of human IDH1 R132H mutant
[8] = target: T1, Isocitrate dehydrogenase [NADP] cytoplasmic; test: Inhibition of N-terminal His-tagged human recombinant IDH1 R132H mutant (1 to 414) expressed in Sf9 incubated for 60 mins by size-exclusion chromatography analysis
[9] = target: T1, Isocitrate dehydrogenase [NADP] cytoplasmic; test: Inhibition of C-terminal His8-tagged human recombinant IDH1 R132H mutant expressed as Escherichia coli BL21 (DE3) cells using alpha KG as substrate preincubated with compound for 30 mins followed by substrate addition measured after […] by HTS assay
[10] = Inhibition of IDH2 R172Q mutant (unknown origin); set-up: species or system Homo sapiens
[11] = target: T2, Isocitrate dehydrogenase [NADP] cytoplasmic (Homo sapiens, UniProt O75874, R132C); test: Inhibition of IDH1 R132C mutant (unknown origin) expressed in Escherichia coli BL21 (DE3) cells
T2 sequence (O75874 2-414 R132C limits assumed): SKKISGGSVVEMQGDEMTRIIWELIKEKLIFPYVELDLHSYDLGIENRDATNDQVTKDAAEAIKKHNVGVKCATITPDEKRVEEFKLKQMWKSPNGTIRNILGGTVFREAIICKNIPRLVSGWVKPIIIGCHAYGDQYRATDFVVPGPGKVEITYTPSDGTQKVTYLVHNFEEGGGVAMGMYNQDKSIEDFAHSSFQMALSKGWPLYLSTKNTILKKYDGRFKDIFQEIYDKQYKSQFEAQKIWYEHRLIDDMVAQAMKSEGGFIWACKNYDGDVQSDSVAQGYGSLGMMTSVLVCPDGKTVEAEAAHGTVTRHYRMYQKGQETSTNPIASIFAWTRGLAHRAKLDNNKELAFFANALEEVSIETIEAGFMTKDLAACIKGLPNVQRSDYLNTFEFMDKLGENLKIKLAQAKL

[12] = target: T1, Isocitrate dehydrogenase [NADP] cytoplasmic; test: Inhibition of human recombinant IDH1 R132H mutant expressed in Escherichia coli
[13] = target: T3, Isocitrate dehydrogenase [NADP] cytoplasmic (Homo sapiens, UniProt O75874); test: Inhibition of human recombinant wildtype IDH1
T3 sequence (O75874 whole entry): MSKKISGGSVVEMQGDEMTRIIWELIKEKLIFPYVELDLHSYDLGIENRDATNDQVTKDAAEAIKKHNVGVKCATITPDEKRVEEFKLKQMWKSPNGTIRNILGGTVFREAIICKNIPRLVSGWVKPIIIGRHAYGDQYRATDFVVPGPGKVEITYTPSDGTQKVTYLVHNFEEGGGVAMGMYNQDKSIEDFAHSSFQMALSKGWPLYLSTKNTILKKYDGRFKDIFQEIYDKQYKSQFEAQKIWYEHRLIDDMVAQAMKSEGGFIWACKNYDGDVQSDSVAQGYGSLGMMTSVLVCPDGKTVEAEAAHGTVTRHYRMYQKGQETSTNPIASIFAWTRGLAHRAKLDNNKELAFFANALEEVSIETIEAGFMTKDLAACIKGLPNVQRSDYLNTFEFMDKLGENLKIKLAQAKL

[14] = target: T3, Isocitrate dehydrogenase [NADP] cytoplasmic; test: Inhibition of IDH1 (unknown origin) expressed in Escherichia coli BL21 (DE3) cells using 2OG as substrate preincubated with compound for 2 hrs followed by substrate addition and measured after 1 hrs by spectrophotometric analysis
[15] = target: T4, Isocitrate dehydrogenase [NADP], mitochondrial (Homo sapiens, UniProt P48735, R140Q); test: Inhibition of IDH2 R140Q mutant (unknown origin) in the presence of NADPH by fluorescence based analysis
T4 sequence (P48735 40-452 R140Q limits assumed): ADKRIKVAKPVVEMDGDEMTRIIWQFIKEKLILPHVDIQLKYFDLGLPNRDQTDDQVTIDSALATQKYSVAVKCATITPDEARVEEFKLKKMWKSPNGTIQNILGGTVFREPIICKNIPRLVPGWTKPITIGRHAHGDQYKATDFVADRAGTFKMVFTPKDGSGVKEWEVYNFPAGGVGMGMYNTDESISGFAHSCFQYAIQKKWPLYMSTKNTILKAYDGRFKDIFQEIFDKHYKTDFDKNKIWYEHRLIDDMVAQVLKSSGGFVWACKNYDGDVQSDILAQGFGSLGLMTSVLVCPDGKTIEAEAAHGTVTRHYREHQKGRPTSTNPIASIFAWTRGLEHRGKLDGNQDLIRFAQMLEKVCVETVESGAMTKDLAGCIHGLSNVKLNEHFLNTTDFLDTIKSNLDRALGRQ

[16] = target: T2, Isocitrate dehydrogenase [NADP] cytoplasmic; test: Inhibition of human […] IDH1 R132C mutant expressed in Escherichia coli BL21 (DE3) cells incubated for 60 mins by fluorescence based analysis
[17] = system: TF-1; test: Anticancer activity against human TF-1 cells assessed as cell growth inhibition; format: functional, cell-based
[18] = target: T1, Isocitrate dehydrogenase [NADP] cytoplasmic; test: Inhibition of human […] IDH1 R132H mutant expressed in Escherichia coli BL21 (DE3) cells incubated for 60 mins by fluorescence based analysis
[19] = target: T5, Isocitrate dehydrogenase [NADP], mitochondrial (Homo sapiens, UniProt P48735); test: Inhibition of wildtype IDH2 (unknown origin)
T5 sequence (P48735 whole entry): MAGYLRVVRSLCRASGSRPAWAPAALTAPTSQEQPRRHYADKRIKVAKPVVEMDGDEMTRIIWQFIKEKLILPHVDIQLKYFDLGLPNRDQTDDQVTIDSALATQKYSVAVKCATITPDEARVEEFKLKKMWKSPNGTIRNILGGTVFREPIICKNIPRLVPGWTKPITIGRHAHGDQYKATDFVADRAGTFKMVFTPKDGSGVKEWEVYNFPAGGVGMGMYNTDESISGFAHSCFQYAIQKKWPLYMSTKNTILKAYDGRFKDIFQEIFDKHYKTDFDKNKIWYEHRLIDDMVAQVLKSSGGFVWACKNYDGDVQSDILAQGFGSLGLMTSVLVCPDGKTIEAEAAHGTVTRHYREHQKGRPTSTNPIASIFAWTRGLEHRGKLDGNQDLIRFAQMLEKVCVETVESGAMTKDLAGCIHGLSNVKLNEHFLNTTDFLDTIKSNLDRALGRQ

[20] = Selectivity index, ratio of IC50 for inhibition of wildtype IDH2 (unknown origin) to IC50 for inhibition of IDH2 R140Q mutant (unknown origin)
[21] = target: T1, Isocitrate dehydrogenase [NADP] cytoplasmic; test: Inhibition of IDH1 R132H mutant (unknown origin) expressed in Escherichia coli in presence of alpha-KG and NADPH by fluorescence based biochemical assay
[22] = target: T1, Isocitrate dehydrogenase [NADP] cytoplasmic; test: Inhibition of human IDH1 R132H mutant heterodimer in presence of alpha-ketoglutarate and NADPH by fluorescence based biochemical assay
[23] = target: T4, Isocitrate dehydrogenase [NADP], mitochondrial; test: Inhibition of N-terminal His-tagged human recombinant IDH2 R140Q mutant (41 to 452) expressed in baculovirus system incubated for 60 mins by size-exclusion chromatography analysis
[24] = target: T3, Isocitrate dehydrogenase [NADP] cytoplasmic; test: Inhibition of full length N-terminal GST-tagged human wild type IDH1 expressed in Escherichia coli in presence of NADPH by fluorescence based biochemical assay
[25] = target: T2, Isocitrate dehydrogenase [NADP] cytoplasmic; test: Inhibition of C-terminal Hexahistidine-tagged human recombinant IDH1 R132C mutant expressed in Escherichia coli BL21 (DE3) cells assessed as NADPH consumption in presence of alpha KG incubated for 1 hr by MST assay

T1 sequence (O75874 2-414 R132H limits assumed): as the sequence (O75874 2-414 R132C limits assumed) above, with C131H counted along it

Compound: CC(C)n1nc(C2=C(c3cn(CCCn4ccnc4)c4cc(Cl)ccc34)C(=O)NC2=O)c2ccccc21
- IC50 [1]: 1540 nM

Compound: Cc1cc([C@H](C)Nc2nccc(N3C(=O)OC[C@@H]3[C@H](C)F)n2)ncc1-c1ccnc(C(F)(F)F)c1
- Kp [2]: 0.62
- IC50 [3]: 25 nM
- IC50 [4]: 24 nM

Compound: Cc1cc(-c2ccc([C@H](C)Nc3nccc(N4C(=O)OC[C@@H]4C(C)C)n3)cc2)ccc1F
- IC50 [5]: 428 nM
- IC50 [6]: 680 nM

Compound: C[C@H](Nc1nccc(N2CC[C@H](C)C2=O)n1)c1cc(-c2ccc(Cl)cc2)no1
- IC50 [7]: 358 nM

Compound: FC1(F)CCC(Nc2nc(NC3CCC(F)(F)CC3)nc(-c3cccc(C(F)(F)F)n3)n2)CC1
- IC50 [8]: 27 nM

Compound: O=C(N1Cc2cccnc2Nc2ccc(N3CCOCC3)cc21)C12CCC3(F)CCC(CC(C3)C1)C2 (configuration not stated)
- IC50 [9]: 225 nM

Compound: C=CC(=O)N1CC(OCc2ccc([C@H](C)Nc3ncc4c(n3)N(CC(C)C)C(=O)OC4)cc2)C1
- IC50 [10]: 96.3 µM
- IC50 [6]: 1280 nM

Compound: Cn1cc(C2=C(c3c[nH]c4cc(Cl)ccc34)C(=O)NC2=O)c2cccnc21
- IC50 [1]: 19400 nM

Compound: C=CC(=O)N1CCN(C(CC2CC2)c2ccc([C@H](C)Nc3nc(F)cc(N4C(=O)OCC4(C)C)n3)cc2)CC1 (some centres not stated)
- IC50 [11]: 5 nM
- IC50 [5]: 1 nM
- IC50 [6]: 0.5 nM
- IC50 [12]: 5 nM

Compound: Cc1cn(C(=O)c2c(-c3c(Cl)cc(Cl)cc3Cl)noc2C(C)(C)F)c2cccc(/C=C/C(=O)O)c12 [SAFUSIDENIB]
- IC50 [11]: 11 nM
- IC50 [13]: 180 nM
- IC50 [14]: > 10 µM
- IC50 [15]: > 10 µM
- Kp [2]: 0.4
- IC50 [16]: 11 nM
- IC50 [7]: 8.4 nM
- IC50 [17]: 29 nM
- IC50 [18]: 8.4 nM
- IC50 [19]: > 10 µM
- Ratio IC50 [20]: < 0.001

Compound: C=CC(=O)N1CCC(N(C)Cc2ccc([C@H](C)Nc3ncc4c(n3)N(CC)C(=O)OC4)cc2)CC1
- IC50 [10]: > 100 µM
- IC50 [5]: 1200 nM
- IC50 [6]: 13.5 nM

Compound: CC(C)(F)c1onc(-c2c(Cl)cccc2Cl)c1C(=O)n1cc2c3c(cccc31)/C(=C/C(=O)O)CC2
- IC50 [16]: 148 nM
- IC50 [18]: 18 nM

Compound: C[C@H](Nc1nc(N2C(=O)OC[C@@H]2[C@@H](C)O)c2cc[nH]c2n1)c1ccccc1F
- IC50 [21]: 22 nM

Compound: C=CC(=O)N1CCC(c2onc(-c3c(Cl)cccc3Cl)c2C(=O)n2ccc3c(/C=C/C(=O)O)cccc32)CC1
- IC50 [16]: 0.44 nM
- IC50 [18]: 0.349 nM

Compound: COC(=O)c1ccc2c(c1)nc(Nc1ccc(C(C)C)cc1)n2C1CC(C)CC(C)(C)C1 (configuration not stated)
- IC50 [22]: 180 nM

Compound: C=CC(=O)N1CCN(C(CC)c2ccc([C@H](C)Nc3nccc(N4CCOC4=O)n3)cc2)CC1 (some centres not stated)
- IC50 [11]: 568 nM
- IC50 [5]: 11.8 nM
- IC50 [6]: 2.2 nM

Compound: C[C@H](Nc1nccc(N2CCCC2=O)n1)c1ccc(Oc2ccccc2)cc1
- IC50 [7]: 24.1 nM

Compound: COC(C)(C)c1onc(-c2c(Cl)cc(Cl)cc2Cl)c1C(=O)n1ccc2c(/C=C/C(=O)O)cccc21
- IC50 [16]: 94 nM
- IC50 [18]: 6 nM

Compound: FC1(F)CCC(Nc2nc(NC3CCC(F)(F)C3)nc(-c3cccc(C(F)(F)F)n3)n2)C1 (configuration not stated)
- IC50 [8]: 6 nM
- IC50 [23]: 16 nM

Compound: C=CC(=O)N1CCN(Cc2ccc([C@H](C)Nc3nccc(N4C(=O)OC[C@@H]4[C@@H](C)O)n3)cc2)CC1
- IC50 [5]: 211 nM
- IC50 [6]: 15.1 nM

Compound: Cn1cc(C2=C(c3cn(CCCn4ccnc4)c4cc(Cl)ccc34)C(=O)NC2=O)c2cccnc21
- IC50 [24]: ≥ 10 µM
- IC50 [1]: 160 nM

Compound: C[C@H](Nc1nccc(N2CCC(N)C2=O)n1)c1nc(-c2ccc(Cl)cc2)cs1 (some centres not stated)
- IC50 [7]: 1680 nM

Compound: COc1ccc(C(=O)[C@@H](Cn2cncn2)[C@H](Sc2ccccc2)c2ccccc2)cc1
- IC50 [25]: 20.8 µM

Compound: C=CC(=O)N1CCN(Cc2ccc([C@H](C)Nc3ncc(F)c(N4C(=O)OCC4(C)C)n3)cc2)CC1
- IC50 [5]: 69.6 nM
- IC50 [6]: 18.6 nM
